# Test results taken from PubChem BioAssay AID1963437 (Molecular Pharmacology Branch, DTP, NCI, 2024).
# System: OVCAR-8 complex spheroid, growth inhibition
# Experiment: Anticancer human tumor OVCAR-8 cell line growth inhibition [Asc];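 further: spheroids exposed to agents for 7 days before readout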;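 on viability, T/C: percent viability relative to DMSO vehicle wells taken as 100%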
# Details: for IC50: curve of first compound; for viability, T/C: stronger effect = lower value
# In short: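 Tumor cells were grown as complex spheroids with human endothelial cells (HUVEC) and human mesenchymal stem cells as stroma. Agents were tested alone and in combination, in half-log steps down from the clinical Cmax, or from 10 microM where Cmax was unknown.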
# [1] = second compound 0.00949 µM, first compound 0.00316 µM
# [2] = second compound 0.00949 µM, first compound 0.01 µM
# [3] = second compound 0.00949 µM, first compound 0.0316 µM
# [4] = second compound 0.00949 µM, first compound 0.1 µM
# [5] = second compound 0.03 µM, first compound 0.00316 µM
# [6] = second compound 0.03 µM, first compound 0.01 µM
# [7] = second compound 0.03 µM, first compound 0.0316 µM
# [8] = second compound 0.03 µM, first compound 0.1 µM
# [9] = second compound 0.0949 µM, first compound 0.00316 µM
# [10] = second compound 0.0949 µM, first compound 0.01 µM
# [11] = second compound 0.0949 µM, first compound 0.0316 µM
# [12] = second compound 0.0949 µM, first compound 0.1 µM
# [13] = second compound 0.3 µM, first compound 0.00316 µM
# [14] = second compound 0.3 µM, first compound 0.01 µM
# [15] = second compound 0.3 µM, first compound 0.0316 µM
# [16] = second compound 0.3 µM, first compound 0.1 µM
# [17] = second compound 0.949 µM, first compound 0.00316 µM
# [18] = second compound 0.949 µM, first compound 0.01 µM
# [19] = second compound 0.949 µM, first compound 0.0316 µM
# [20] = second compound 0.949 µM, first compound 0.1 µM
# [21] = second compound 3 µM, first compound 0.00316 µM
# [22] = second compound 3 µM, first compound 0.01 µM
# [23] = second compound 3 µM, first compound 0.0316 µM
# [24] = second compound 3 µM, first compound 0.1 µM
compound,measurement,setting,value
COc1c(OCCCN2CCOCC2)ccc2c3n(c(=NC(=O)c4cnc(N)nc4)nc12)CCN3 + CCN1C(C(=O)NC23CCC(C(=O)O)(CC2)CC3)C(c2cccc(Cl)c2F)C2(C(=O)Nc3cc(Cl)ccc32)C12CCCCC2,IC50,second compound 0.00949 µM,> 1000 nM
same,IC50,second compound 0.03 µM,> 1000 nM
same,IC50,second compound 0.0949 µM,> 1000 nM
same,IC50,second compound 0.3 µM,> 1000 nM
same,IC50,second compound 0.949 µM,> 1000 nM
same,IC50,second compound 3 µM,> 1000 nM
same,"viability, T/C",[1],94.7%
same,"viability, T/C",[2],92.2%
same,"viability, T/C",[3],113%
same,"viability, T/C",[4],170%
same,"viability, T/C","second compound 0.00949 µM, first compound 0.316 µM",140%
same,"viability, T/C","second compound 0.00949 µM, first compound 1 µM",97.1%
same,"viability, T/C",[5],81.5%
same,"viability, T/C",[6],101%
same,"viability, T/C",[7],121%
same,"viability, T/C",[8],134%
same,"viability, T/C","second compound 0.03 µM, first compound 0.316 µM",133%
same,"viability, T/C","second compound 0.03 µM, first compound 1 µM",91.2%
same,"viability, T/C",[9],104%
same,"viability, T/C",[10],99%
same,"viability, T/C",[11],117%
same,"viability, T/C",[12],165%
same,"viability, T/C","second compound 0.0949 µM, first compound 0.316 µM",154%
same,"viability, T/C","second compound 0.0949 µM, first compound 1 µM",92.4%
same,"viability, T/C",[13],103%
same,"viability, T/C",[14],103%
same,"viability, T/C",[15],108%
same,"viability, T/C",[16],153%
same,"viability, T/C","second compound 0.3 µM, first compound 0.316 µM",133%
same,"viability, T/C","second compound 0.3 µM, first compound 1 µM",80%
same,"viability, T/C",[17],93.9%
same,"viability, T/C",[18],89.8%
same,"viability, T/C",[19],146%
same,"viability, T/C",[20],172%
same,"viability, T/C","second compound 0.949 µM, first compound 0.316 µM",144%
same,"viability, T/C","second compound 0.949 µM, first compound 1 µM",80.9%
same,"viability, T/C",[21],111%
same,"viability, T/C",[22],115%
same,"viability, T/C",[23],133%
same,"viability, T/C",[24],153%
same,"viability, T/C","second compound 3 µM, first compound 0.316 µM",126%
same,"viability, T/C","second compound 3 µM, first compound 1 µM",90.2%
NC(=O)C(=Cn1cnc(-c2cc(C(F)(F)F)cc(C(F)(F)F)c2)n1)c1cncnc1 + CCN1C(C(=O)NC23CCC(C(=O)O)(CC2)CC3)C(c2cccc(Cl)c2F)C2(C(=O)Nc3cc(Cl)ccc32)C12CCCCC2,IC50,second compound 0.00949 µM,> 300 nM
same,IC50,second compound 0.03 µM,> 300 nM
same,IC50,second compound 0.0949 µM,> 300 nM
same,IC50,second compound 0.3 µM,> 300 nM
same,IC50,second compound 0.949 µM,> 300 nM
same,IC50,second compound 3 µM,> 300 nM
same,"viability, T/C","second compound 0.00949 µM, first compound 0.000949 µM",98.7%
same,"viability, T/C","second compound 0.00949 µM, first compound 0.003 µM",100%
same,"viability, T/C","second compound 0.00949 µM, first compound 0.00949 µM",106%
same,"viability, T/C","second compound 0.00949 µM, first compound 0.03 µM",102%
same,"viability, T/C","second compound 0.00949 µM, first compound 0.0949 µM",81.8%
same,"viability, T/C","second compound 0.00949 µM, first compound 0.3 µM",66.3%
same,"viability, T/C","second compound 0.03 µM, first compound 0.000949 µM",96.5%
same,"viability, T/C","second compound 0.03 µM, first compound 0.003 µM",90.1%
same,"viability, T/C","second compound 0.03 µM, first compound 0.00949 µM",111%
same,"viability, T/C","second compound 0.03 µM, first compound 0.03 µM",89.5%
same,"viability, T/C","second compound 0.03 µM, first compound 0.0949 µM",82.5%
same,"viability, T/C","second compound 0.03 µM, first compound 0.3 µM",66.9%
same,"viability, T/C","second compound 0.0949 µM, first compound 0.000949 µM",88.9%
same,"viability, T/C","second compound 0.0949 µM, first compound 0.003 µM",102%
same,"viability, T/C","second compound 0.0949 µM, first compound 0.00949 µM",102%
same,"viability, T/C","second compound 0.0949 µM, first compound 0.03 µM",105%
same,"viability, T/C","second compound 0.0949 µM, first compound 0.0949 µM",80.3%
same,"viability, T/C","second compound 0.0949 µM, first compound 0.3 µM",65.9%
same,"viability, T/C","second compound 0.3 µM, first compound 0.000949 µM",93.2%
same,"viability, T/C","second compound 0.3 µM, first compound 0.003 µM",85.1%
same,"viability, T/C","second compound 0.3 µM, first compound 0.00949 µM",94%
same,"viability, T/C","second compound 0.3 µM, first compound 0.03 µM",101%
same,"viability, T/C","second compound 0.3 µM, first compound 0.0949 µM",81%
same,"viability, T/C","second compound 0.3 µM, first compound 0.3 µM",68.7%
same,"viability, T/C","second compound 0.949 µM, first compound 0.000949 µM",88.1%
same,"viability, T/C","second compound 0.949 µM, first compound 0.003 µM",103%
same,"viability, T/C","second compound 0.949 µM, first compound 0.00949 µM",102%
same,"viability, T/C","second compound 0.949 µM, first compound 0.03 µM",122%
same,"viability, T/C","second compound 0.949 µM, first compound 0.0949 µM",73.4%
same,"viability, T/C","second compound 0.949 µM, first compound 0.3 µM",60%
same,"viability, T/C","second compound 3 µM, first compound 0.000949 µM",116%
same,"viability, T/C","second compound 3 µM, first compound 0.003 µM",109%
same,"viability, T/C","second compound 3 µM, first compound 0.00949 µM",112%
same,"viability, T/C","second compound 3 µM, first compound 0.03 µM",115%
same,"viability, T/C","second compound 3 µM, first compound 0.0949 µM",80.5%
same,"viability, T/C","second compound 3 µM, first compound 0.3 µM",59.8%
NC1CCC(NC2CC2c2ccccc2)CC1 (stereo unspecified) + CCN1C(C(=O)NC23CCC(C(=O)O)(CC2)CC3)C(c2cccc(Cl)c2F)C2(C(=O)Nc3cc(Cl)ccc32)C12CCCCC2,IC50,second compound 0.00949 µM,> 100 nM
same,IC50,second compound 0.03 µM,> 100 nM
same,IC50,second compound 0.0949 µM,> 100 nM
same,IC50,second compound 0.3 µM,> 100 nM
same,IC50,second compound 0.949 µM,> 100 nM
same,IC50,second compound 3 µM,> 100 nM
same,"viability, T/C","second compound 0.00949 µM, first compound 0.000316 µM",81.2%
same,"viability, T/C","second compound 0.00949 µM, first compound 0.001 µM",113%
same,"viability, T/C",[1],91.4%
same,"viability, T/C",[2],109%
same,"viability, T/C",[3],84.8%
same,"viability, T/C",[4],90.7%
same,"viability, T/C","second compound 0.03 µM, first compound 0.000316 µM",93.7%
same,"viability, T/C","second compound 0.03 µM, first compound 0.001 µM",90.2%
same,"viability, T/C",[5],96.5%
same,"viability, T/C",[6],93.8%
same,"viability, T/C",[7],98.5%
same,"viability, T/C",[8],101%
same,"viability, T/C","second compound 0.0949 µM, first compound 0.000316 µM",95.4%
same,"viability, T/C","second compound 0.0949 µM, first compound 0.001 µM",99.5%
same,"viability, T/C",[9],90.2%
same,"viability, T/C",[10],96.5%
same,"viability, T/C",[11],98.5%
same,"viability, T/C",[12],90.3%
same,"viability, T/C","second compound 0.3 µM, first compound 0.000316 µM",98.9%
same,"viability, T/C","second compound 0.3 µM, first compound 0.001 µM",108%
same,"viability, T/C",[13],109%
same,"viability, T/C",[14],110%
same,"viability, T/C",[15],91.1%
same,"viability, T/C",[16],103%
same,"viability, T/C","second compound 0.949 µM, first compound 0.000316 µM",89.2%
same,"viability, T/C","second compound 0.949 µM, first compound 0.001 µM",109%
same,"viability, T/C",[17],88%
same,"viability, T/C",[18],105%
same,"viability, T/C",[19],106%
same,"viability, T/C",[20],97.4%
same,"viability, T/C","second compound 3 µM, first compound 0.000316 µM",113%
same,"viability, T/C","second compound 3 µM, first compound 0.001 µM",98.2%
same,"viability, T/C",[21],107%
same,"viability, T/C",[22],110%
same,"viability, T/C",[23],119%
same,"viability, T/C",[24],109%
